Laboratory results published in patent US10124001B2, “Stem cell modulation II” (University of Canberra, priority 2013, dated 2018).
“Also recorded” adds a separate entry of the source.

Tests used:
MCF-7 cells [1] = assay: Mammosphere assay in MCF-IM model; type: cell-based, human; conditions: 1 μM for 1 hr prior to PMA stimulation, 6 days; mammospheres larger than 60 μm counted
Procedure: Mammosphere culture media components were purchased from StemCell Technologies and mammosphere assays were performed as recommended by the manufacturer's guidelines. Briefly, 40,000 cells/2 ml cell dilutions were then prepared and 2 ml of cells were seeded in the 6 well-ultralow adherent, flat bottom plates (Costar). Mammospheres larger than 60 μm were counted per well on day 7 and pictures were taken.

MCF-7 cells [2] = assay: EMT morphology by phase contrast microscopy in MCF-IM model; type: cell-based, human
Procedure: The adherent human mammary adenocarcinoma MCF-7 and MDA-MB-231 cells were cultured in low glucose DMEM (Gibco) and both supplemented with 10% FCS, 2 mM L-glutamine and 0.1% PSN antibiotics. […] For Bisindolylmaleimide-I (Calbiochem) or PKC-θ peptide inhibitor (Calbiochem) studies, cells were pre-treated with 1 μM or 30 μM of inhibitor respectively for 1 h prior to stimulation in MCF-7 cells. In case of MDA-MB-231, cells were treated with 4 μM or 30 μM Bisindolylmaleimide-I or PKC-θ peptide inhibitor respectively.
(§1) phase contrast microscopy was performed where cells were viewed at ×4 magnification (wound healing assay) or ×10 magnification (EMT) using an Olympus fluorescence 1X^71 microscope (Olympus) and images were captured using DPController software (2002 Olympus Optical Co. LTD) and analysed using Photoshop CS3 (Adobe Systems Inc.). Scans were taken with a 10 μm scale bar.

MDA-MB 231 cells [3] = assay: FACS analysis of CD44high/CD24low CSC-like subpopulation in basal/metastatic model; type: cell-based, human; conditions: bisindolylmaleimide-I 4 μM
Procedure: (§2) The adherent human mammary adenocarcinoma MCF-7 and MDA-MB-231 cells were cultured in low glucose DMEM (Gibco) and both supplemented with 10% FCS, 2 mM L-glutamine and 0.1% PSN antibiotics. Cells were stimulated with 0.65 ng/ml of phorbol 12-myristate 13-acetate (PMA) (Sigma-Aldrich) or 20 ng/ml of TGF-β (R&D systems) for the times indicated. For Bisindolylmaleimide-I (Calbiochem) or PKC-θ peptide inhibitor (Calbiochem) studies, cells were pre-treated with 1 μM or 30 μM of inhibitor respectively for 1 h prior to stimulation in MCF-7 cells. In case of MDA-MB-231, cells were treated with 4 μM or 30 μM Bisindolylmaleimide-I or PKC-θ peptide inhibitor respectively.
(§3) To separate CSC from non-CSC (NCSC), florescence activated cell sorting (FACS) was performed on single-cell suspensions that were stained with anti-CD44-APC (559942, BD Biosciences) and anti-CD24-PE antibodies (555428, BD Biosciences) along with Hoechst 33258 to monitor cell viability. As used throughout this work, CSC are defined by minority CD44^high/CD24^low, whereas NCSC are defined by rest of the cell populations.

MDA-MB 231 cells [4] = assay: TaqMan real time PCR transcript analysis of EMT/CSC genes in basal/metastatic model; type: cell-based, human; conditions: bisindolylmaleimide-I 4 μM
Text: (§4) Human TaqMan™ primer sets used were: CD44, Hs00153304, CD24, Hs00273561, uPAR, Hs00182181, Laminin-5, Hs00194333, Zeb-1, Hs00611018, Fibronectin, Hs00415006 and Integrin-β, Hs00168458 (Applied Biosystems). Primers used for SYBR Green real-time PGR are: Zeb1 (sense: 5′-[…]-3′ and antisense: 5′-[…]-3′) and Cyclophilin A (sense: 5′-[…]-3′ and antisense: 5′-CACCACATGCTTGCCATCC-3′).
(§5) Total RNA was extracted using TRIzol® Reagent (Invitrogen) and first strand cDNA was synthesized using the Superscript™ III RNase H-reverse transcriptase kit (Invitrogen). TaqMan® Gene Expression Assays and SYBR Green real-time PCR were performed as previously described (Sutcliffe et al., 2009, Molecular and Cellular Biology, 29: 1972-86). MicroRNA assays were performed with the TaqMan® MicroRNA Reverse Transcription Kit (ABI 4366596) and the data were normalized to RNU6B as previously described in Sutcliffe et al. ([…], Molecular Cell 41:704-719).

MDA-MB 231 cells [5] = assay: EMT morphology by phase contrast microscopy in basal/metastatic model; type: cell-based, human; conditions: Bisindolylmaleimide 4 μM
Procedure: as §2, §1

MCF-7 cells [6] = assay: FACS analysis of CD44high/CD24low CSC-like subpopulation in MCF-IM model; type: cell-based, human; conditions: for CD44 high CD24 low CSC-like subpopulation (FACS): bisindolylmaleimide-I 100 nm and 1 μM or Go6976 1 μM prior to PMA 60 hrs; for CSC formation (CD44high/CD24low, FACS): compound 27 1 uM for 24 hours pre-treatment, PMA 0.65 ng/ml 60 h
Procedure: as §2, §3

MCF-7 cells [7] = assay: TaqMan real time PCR transcript analysis of inducible EMT/CSC genes in MCF-IM model; type: cell-based, human; conditions: for transcription of key inducible EMT/CSC genes (laminin-5, uPAR, CD44): 1 hour prior to PMA 60 hrs
Text: as §4, §5

PKC-θ [8] = assay: ChIP assay of PKC-θ chromatin association at CSC inducible gene promoters in MCF-IM model; type: cell-based, human
Procedure: ChIP buffers were purchased from Upstate Biotechnology and ChIP assays were performed according to the protocol supplied by Upstate Biotechnology as previously described (Sutcliffe et al., 2011, Molecular Cell. 41:704-719 ). Antibody used were: Anti-PKC-θ (Santa Cruz, sc-212), Anti-PKC-θ Phospho s695 (Abcam, ab76568) and Pol II c-21 (Abcam, ab817), Promoter primers used for RT-PCR were human CD44 (Fwd: […], Rev: […]), uPAR(Fwd: […], Rev: […]) and IL-6 (Fwd: […], Rev: […]). Sequential ChIP assays performed as described previously by Sutcliffe et al., (2011, Molecular Cell. 41: 704-719).

NF-κB p65 = assay: Immunoblotting of MCF-IM nuclear and cytoplasmic fractions for NF-κB p65; type: cell-based, human
Procedure: Immunoblot analysis was performed according to the manufacturer's protocol and as previously described (Rao et al., 2003 c-Rel is required for chromatin remodeling across the IL-2 gene promoter. Journal of immunology 170:3724-3731.) with anti-PKC-θ (sc-212, SantaCruz), anti-p65 (ab7970, Abcam), anti-p65 phospho (ser-468) (3039, Cell Signaling), anti-p65 phospho (ser-536) (3031, Cell Signaling) and RNA Pol II(c-21) (ab817, Abcam) antibodies.

PKC-θ [9] = biological target: PKC-θ (Homo sapiens, UniProt Q04759); assay: PKC ELISA-based kinase assay, in-vitro PKC-θ activity; type: biochemical; conditions: FIG. 6A
PKC-θ (Homo sapiens, UniProt Q04759), sequence (Q04759 whole entry): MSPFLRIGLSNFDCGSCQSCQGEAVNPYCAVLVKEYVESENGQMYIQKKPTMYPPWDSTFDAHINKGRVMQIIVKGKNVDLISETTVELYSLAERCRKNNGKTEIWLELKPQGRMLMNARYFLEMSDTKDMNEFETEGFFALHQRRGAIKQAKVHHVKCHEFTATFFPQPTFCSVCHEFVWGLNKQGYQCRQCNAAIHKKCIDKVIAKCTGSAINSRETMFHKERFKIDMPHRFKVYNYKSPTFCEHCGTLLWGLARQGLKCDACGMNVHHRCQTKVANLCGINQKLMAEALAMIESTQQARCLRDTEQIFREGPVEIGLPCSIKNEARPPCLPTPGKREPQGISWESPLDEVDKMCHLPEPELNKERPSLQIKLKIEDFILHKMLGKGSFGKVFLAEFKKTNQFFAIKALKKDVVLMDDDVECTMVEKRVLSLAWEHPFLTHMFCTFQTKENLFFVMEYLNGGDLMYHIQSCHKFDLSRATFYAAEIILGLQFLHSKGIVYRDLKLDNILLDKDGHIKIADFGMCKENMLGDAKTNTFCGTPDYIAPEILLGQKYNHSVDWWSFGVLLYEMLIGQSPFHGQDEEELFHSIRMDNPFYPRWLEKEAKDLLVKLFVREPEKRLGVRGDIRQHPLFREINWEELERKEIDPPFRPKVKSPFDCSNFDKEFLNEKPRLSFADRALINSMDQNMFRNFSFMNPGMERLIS
Procedure: (§6) PKC activity assay were purchased from Enzo Life Sciences (DI-EKS-420A) and assays were performed according to the manufacture's protocol as previously described (Sutcliffe, 2012, supra).
(§7) PKC-θ and PKC-β activity assays (Enzo Life Sciences; DI-EKS-420A) were performed according to the manufacturer's protocol and as previously described (Sutcliffe et. Al., 2012. Chromatinized Protein Kinase C-theta: Can It Escape the Clutches of NF-kappaB? Front Immunol 3:260).

NF-κB p50 and p65 = assay: NF-κB activity assay (TransAM NF-κB Family kit), MCF-IM nuclear extracts; type: cell-based, human; conditions: MCF-IM treated with C27 vs vehicle
Procedure: TransAM NF-κB Family kit was used for NF-κB activity assays (43296, Active Motif). Assays were performed according to the manufacturer's guidelines. 5 μg protein from MDA-MB231 or MCF-IM derived whole cell, nuclear and cytoplasmic extracts were used in triplicate for the assays. Raji nuclear extract was used as a positive control Wild-type and mutated consensus oligonucleotides were also used as a negative and positive controls respectively.

PKC = PKC ELISA-based kinase assay of nuclear or cytoplasmic extract from MCF-IM; type: cell-based, human; conditions: assays without specific immunoprecipitates, global PKC activity (FIG. 6B)
Procedure: as §6, §7

## CN(C)CCCn1cc(C2=C(c3c[nH]c4ccccc34)C(=O)NC2=O)c2ccccc21 [bisindolylmaleimide-I, Bisindolylmaleimide-I]
MCF-7 cells [1]
  mammosphere formation: reduce mammosphere formation
MCF-7 cells [2]; bisindolylmaleimide 1 μM, 1 hr pre-treatment before PMA stimulation 60 hrs
  EMT (morphology): inhibits EMT
MDA-MB 231 cells [3]
  CD44 high CD24 low CSC-like subpopulation (FACS): inhibits CD44 high CD24 low-CSC-like subpopulation
MDA-MB 231 cells [4]
  transcription of key inducible EMT/CSC genes (laminin-5, uPAR, CD44): inhibits transcription of key inducible EMT/CSC genes
MDA-MB 231 cells [5]
  EMT (morphology): inhibits EMT
MCF-7 cells [6]
  CD44 high CD24 low CSC-like subpopulation (FACS): only very high concentration of bisindolylmaleimide-I
MCF-7 cells [7]; 100 nM
  transcription of key inducible EMT/CSC genes (laminin-5, uPAR, CD44): cannot inhibit transcription of key inducible EMT/CSC genes
MCF-7 cells [7]; 1 μM
  transcription of key inducible EMT/CSC genes (laminin-5, uPAR, CD44): inhibits transcription of key inducible EMT/CSC genes
PKC-θ [8]; as worded in Example 4
  binding of PKC-θ on the CD44 gene promoter (ChIP): reduction of binding of PKC-θ on the CD44 gene promoter
PKC-θ [8]; bisindolylmaleimide-I 1 μM 1 hr pre-incubation, or siRNA 48 hrs, then PMA 60 hrs
  PKC-θ chromatin association across the uPAR promoter (ChIP): reduces its chromatin association across the uPAR promoter

## CCCCCCCCCCCCCC(=O)O[C@@H]1[C@@H](C)[C@@]2(O)[C@@H](C=C(CO)C[C@]3(O)C(=O)C(C)=C[C@@H]23)[C@@H]2C(C)(C)[C@]12OC(C)=O [PMA, Phorbol 12-Myristate 13-Acetate]
MCF-7 cells [2]; PMA 20 ng/mL for 60 hr, compared with TNF-α, EGF, IL-6, TGF-β
  EMT (percentage of cells undergoing EMT, morphology): results in maximal EMT; also recorded: caused highest EMT changes
MCF-7 cells [6]; induction of PKC pathway by PMA 0.65 ng/mL 60 hr
  generation of CD44high/CD24low CSC like cells: results in the generation of CD44^high/CD24^low-CSC like cells

## CC(C)[C@@](C)(O)[C@@H]1CN(c2nc(-c3n[nH]c4ncccc34)c(F)cc2Cl)CCN1 [Compound C27]
NF-κB p65; C27 treated epithelial and mesenchymal cells, cytoplasmic fraction
  p65 in the cytoplasmic fraction: global accumulation of p65 was observed in the cytoplasmic fraction
NF-κB p65; MCF-IM nuclear extracts, with or without compound 27
  p65 phosphorylation at serine 468 in nuclear extracts: this phosphorylation was inhibited
NF-κB p65; epithelial and mesenchymal state, nuclear fraction
  p65 abundance in the nuclei (pan-p65 antibody): inhibited p65 abundance in the nuclei
PKC-θ [9]
  PKC-θ activity, in-vitro PKC-θ activity assay: abrogated PKC-θ activity
NF-κB p50 and p65
  p50 nuclear activity: significantly decreased
  p65 nuclear activity: significantly decreased
PKC
  PKC-θ activity in nuclear and cellular extracts from MCF-IM pre-treated with C27: abrogated PKC-θ activity
MCF-7 cells [6]
  CSC formation (CD44high/CD24low, FACS): abolished CSC formation
MCF-7 cells [6]; listed as compound 27
  CSC formation (CD44high/CD24low, FACS): prevents CSC formation
MCF-7 cells [7]; C27 treatment, FIG. 6D
  transcription of CSC inducible genes: abolished

## Cn1c2ccccc2c2c3c(c4c5ccccc5n(CCC#N)c4c21)CNC3=O [Go6976]
MCF-7 cells [2]; pre-incubation with Go6976
  PMA-induced EMT-like morphological changes: did not prevent PMA-induced EMT-like morphological changes
MCF-7 cells [6]
  CD44 high CD24 low CSC-like subpopulation (FACS): but not Go 6976 inhibits
MCF-7 cells [6]; pre-incubation with Go6976
  PMA-induced CSC formation: did not prevent
MCF-7 cells [7]; 1 μM
  transcription of key inducible EMT/CSC genes (laminin-5, uPAR, CD44): failed to inhibit transcription of key inducible EMT/CSC genes
